Like-named read-outs stand apart in the source and are kept apart here.
Legend:
[1] = test system: HCT-116 (colorectal carcinoma); test: Antitumoral assay (MTS, 72 h), HCT-116; settings: Homo sapiens, HCT-116, 72 h, read-out: Cytotoxicity IC50, HCT-116
Description: (§1) Human cancer cell lines used in this study included Capan-1, HCT-116, NCI-H460, LN-229, HL-60, K-562, and Z-138, all obtained from the American Type Culture Collection (ATCC). The DND-41 cell line was sourced from the Deutsche Sammlung von Mikroorganismen und Zellkulturen (DSMZ). All cell lines were cultured in media obtained from Gibco Life Technologies, supplemented with 10% fetal bovine serum (HyClone, Logan, UT, USA). Adherent cell lines were seeded in 384-well tissue culture plates at the following densities: Capan-1 at 500 cells/well, and HCT-116, NCI-H460, and LN-229 at 1500 cells/well. After overnight incubation to allow cell attachment, cells were treated with a seven-point serial dilution of test compounds, ranging from 100 µM to 0.006 µM. Suspension cell lines were seeded as follows: HL-60, K-562, and Z-138 at 2500 cells/well, and DND-41 at 5500 cells/well, using the same compound concentration range. All treatments were performed in 384-well plates under identical conditions. Following 72 h of compound exposure, cell viability was assessed using the CellTiter 96® AQueous One Solution Cell Proliferation Assay (MTS, Promega, Leiden, The Netherlands), following the manufacturer’s protocol. The final assay mixture contained 333 µg/mL MTS and 25 µM phenazine methosulfate (PMS). Absorbance was measured at 490 nm using a SpectraMax Plus 384 microplate reader (Molecular Devices, San Jose, CA, USA). Optical density values were used to calculate the half-maximal inhibitory concentration (IC50) for each compound. All compounds were tested in a minimum of two independent biological replicates to ensure reproducibility.

[2] = test system: K-562 (chronic myeloid leukemia); test: Antitumoral assay (MTS, 72 h), K-562; settings: Homo sapiens, K562, 72 h, read-out: Cytotoxicity IC50, K562
Description: (§2) Human cancer cell lines used in this study included Capan-1, HCT-116, NCI-H460, LN-229, HL-60, K-562, and Z-138, all obtained from the American Type Culture Collection (ATCC). The DND-41 cell line was sourced from the Deutsche Sammlung von Mikroorganismen und Zellkulturen (DSMZ). All cell lines were cultured in media obtained from Gibco Life Technologies, supplemented with 10% fetal bovine serum (HyClone, Logan, UT, USA). […] After overnight incubation to allow cell attachment, cells were treated with a seven-point serial dilution of test compounds, ranging from 100 µM to 0.006 µM. Suspension cell lines were seeded as follows: HL-60, K-562, and Z-138 at 2500 cells/well, and DND-41 at 5500 cells/well, using the same compound concentration range. All treatments were performed in 384-well plates under identical conditions. Following 72 h of compound exposure, cell viability was assessed using the CellTiter 96® AQueous One Solution Cell Proliferation Assay (MTS, Promega, Leiden, The Netherlands), following the manufacturer’s protocol. The final assay mixture contained 333 µg/mL MTS and 25 µM phenazine methosulfate (PMS). Absorbance was measured at 490 nm using a SpectraMax Plus 384 microplate reader (Molecular Devices, San Jose, CA, USA). Optical density values were used to calculate the half-maximal inhibitory concentration (IC50) for each compound. All compounds were tested in a minimum of two independent biological replicates to ensure reproducibility.

[3] = test system: Z-138 (non-Hodgkin's lymphoma); test: Antitumoral assay (MTS, 72 h), Z-138; settings: Homo sapiens, Z-138, 72 h, read-out: Cytotoxicity IC50, Z138
Description: as §2

[4] = test system: panel of human cancer cell lines (Capan-1, HCT-116, LN-229, NCI-H460, DND-41, HL-60, K-562, Z-138)
Description: as §1

[5] = test system: HL-60 (acute myeloid leukemia); test: Antitumoral assay (MTS, 72 h), HL-60; settings: Homo sapiens, HL-60, 72 h, read-out: Cytotoxicity IC50, HL-60
Description: as §2

[6] = test system: DND-41 (acute lymphoblastic leukemia); test: Antitumoral assay (MTS, 72 h), DND-41; settings: Homo sapiens, DND41, 72 h, read-out: Cytotoxicity IC50, DND-41
Description: as §2

LN-229 (glioblastoma) = test: Antitumoral assay (MTS, 72 h), LN-229; settings: Homo sapiens, LN-229, 72 h, read-out: Cytotoxicity IC50, LN229
Description: as §1

[7] = test system: Capan-1 (pancreatic adenocarcinoma); test: Antitumoral assay (MTS, 72 h), Capan-1; settings: Homo sapiens, CAPAN-1, 72 h, read-out: Cytotoxicity IC50, Capan-1
Description: as §1

[8] = test system: NCI-H460 (lung carcinoma); test: Antitumoral assay (MTS, 72 h), NCI-H460; settings: Homo sapiens, NCI-H460, 72 h, read-out: Cytotoxicity IC50, NCl-H460
Description: as §1

[9] = test system: peripheral blood mononuclear cells (PBMCs); test: Cell viability of PBMCs (MTS, 72 h); format: cell-based, Human; settings: 72 h exposure, duplicate
Description: A buffy coat preparation sourced from a healthy donor was acquired from the Blood Transfusion Center in Leuven, Belgium. Peripheral blood mononuclear cells (PBMCs) were separated using density gradient centrifugation over Lymphoprep (density: 1.077 g/mL) from Nycomed. These cells were then cultured in cell culture medium (RPMI, Gibco, Waltham, MA, USA) supplemented with 10% FBS. The PBMCs were seeded at a density of 28,000 cells per well in 384-well tissue culture plates containing the test compounds at concentrations ranging from 50 µM to 3.2 nM (for compounds 3–11 and IMNA) and from 10 µM to 0.6 nM (for etoposide). Following a 72 h incubation period, cell viability was assessed using the MTS cell viability assay. Each compound was evaluated in duplicate.

[10] = test system: panel of human cancer cell lines (Capan-1, HCT-116, LN-229, NCI-H460, DND-41, HL-60, K-562, Z-138); test: Antitumoral evaluation across the panel of solid and hematological cancer cell lines; settings: 8 cancer cell lines, 72 h, MTS
Description: as §1

Row | SMILES | IC50 [1] | IC50 [2] | IC50 [3] | Cytotoxic / antiproliferative profile across the cancer cell line panel (in words) [4] | IC50 [5] | IC50 [6] | IC50 (LN-229 (glioblastoma)) | IC50 [7] | IC50 [8] | Toxicity to normal PBMCs ([9]; 10 µM) | Cytotoxic / antiproliferative profile across the cancer cell line panel (in words) [10] | Effect on viability of normal PBMCs ([9]; 50 µM)
1 | C/C(=C/CC[C@H](C)[C@@H]1CC[C@]2(C)C3=C(CC[C@@]12C)[C@@]1(C)CC(SC#N)C(=O)C(C)(C)C1CC3)C(=O)O (mixture of isomers) [Compound 6, 2-Thiocyanate-3-oxotirucalla-8,24Z-dien-26-oic Acid] | 24.3 ± 1.4 µM | 35 ± 3.9 µM | 17.9 ± 0.4 µM | broader antiproliferative activity | 15 ± 1.2 µM | 18.5 ± 0.7 µM | 23.3 ± 2.9 µM | 7.4 ± 1 µM | 21.3 ± 2.3 µM |  |  | 
2 | COc1cc([C@@H]2c3cc4c(cc3[C@@H](O[C@@H]3O[C@@H]5CO[C@@H](C)O[C@H]5[C@H](O)[C@H]3O)[C@H]3COC(=O)[C@H]23)OCO4)cc(OC)c1O [Etoposide, reference compound] | 1.09 ± 0.19 µM | 4.47 ± 0.11 µM | 0.08 ± 0.007 µM |  | 0.3 ± 0.12 µM | 0.08 ± 0.03 µM | 4.8 ± 0.87 µM | 0.24 ± 0.01 µM | 2.36 ± 0.7 µM | did not display toxicity | potent antiproliferative activity against all cancer cell lines | 
3 | C/C(=C/CC[C@H](C)[C@@H]1CC[C@]2(C)C3=C(CC[C@@]12C)[C@@]1(C)CCC(=O)C(C)(C)C1CC3)C(=O)O (some centres unmarked) [IMNA, 24Z-isomasticadienonic acid] | 42.3 ± 2.3 µM | > 50 µM | 32.7 ± 3.2 µM |  | 21.7 ± 3.1 µM | 34.2 ± 2.5 µM | > 50 µM | 26.5 ± 1.6 µM | > 50 µM |  | intermediate activity across multiple cell lines | none of the analogues (compounds 3–11 and IMNA) decreased the viability
4 | C/C(=C/CC[C@H](C)[C@@H]1CC[C@]2(C)C3=C(CC[C@@]12C)[C@@]1(C)Cc2sc(N4CCOCC4)nc2C(C)(C)[C@@H]1CC3)C(=O)O [Compound 7, (S,Z)-2-Methyl-6-((1S,3aS,5aR,10aS,12aS)-3a,6,6,10a,12a-pentamethyl-8-morpholino-2,3,3a,4,5,5a,6,10,10a,11,12,12a-dodecahydro-1H-cyclopenta[7,8]phenanthro[2,3-d]thiazol-1-yl)hept-2-enoic Acid] | > 50 µM | > 50 µM | > 50 µM | selective cytotoxicity toward Capan-1 | > 50 µM | > 50 µM | > 50 µM | 26 ± 0.4 µM | > 50 µM |  |  | 
5 | C/C(=C/CC[C@H](C)[C@@H]1CC[C@]2(C)C3=C(CC[C@@]12C)[C@@]1(C)CC(=O)C(C)(C)C1CC3)C(=O)O (some centres unmarked) [Compound 11, 3-One-1(2→3)-abeotirucalla-8,24Z-dien-26-oic Acid] | > 50 µM | > 50 µM | > 50 µM |  | 29.6 ± 8.9 µM | 49.3 ± 0.8 µM | > 50 µM | 24.6 ± 2.1 µM | > 50 µM |  | more limited and restricted cytotoxic profile | 
6 | C/C(=C/CC[C@H](C)[C@@H]1CC[C@]2(C)C3=C(CC[C@@]12C)[C@@]1(C)CC(Br)C(=O)C(C)(C)C1CC3)C(=O)O (mixture of isomers) [Compound 4, 2-Bromo-3-oxotirucalla-8,24Z-dien-26-oic Acid] | 22 ± 0.8 µM | > 50 µM | > 50 µM | intermediate activity across multiple cell lines | 14.7 ± 3.3 µM | 20.5 ± 3.9 µM | 28.5 ± 5.3 µM | 9.4 ± 1.5 µM | 25.1 ± 1.9 µM |  |  | 
7 | C/C(=C/CC[C@H](C)[C@@H]1CC[C@]2(C)C3=C(CC[C@@]12C)[C@@]1(C)Cc2sc(N)nc2C(C)(C)[C@@H]1CC3)C(=O)O [Compound 5, (S,Z)-6-((1S,3aS,5aR,10aS,12aS)-8-Amino-3a,6,6,10a,12a-pentamethyl-2,3,3a,4,5,5a,6,10,10a,11,12,12a-dodecahydro-1H-cyclopenta[7,8]phenanthro[2,3-d]thiazol-1-yl)-2-methylhept-2-enoic Acid] | 28.2 ± 1.9 µM | > 50 µM | 25 ± 1.4 µM | intermediate activity across multiple cell lines | 19.5 ± 3.2 µM | 19 ± 2 µM | 27.9 ± 2.9 µM | 23.5 ± 2.4 µM | 24.5 ± 7.2 µM |  |  | 
8 | C/C(=C/CC[C@H](C)[C@@H]1CC[C@]2(C)C3=C(CC[C@@]12C)[C@]1(C)C(CC3)C(C)(C)C(=O)O[C@@H]1O)C(=O)O (stereo partly drawn) [Compound 9, 1α-hydroxy-3-oxa-nor-tirucalla-8,24Z-dien-26-oic acid] | > 50 µM | > 50 µM | > 50 µM |  | > 50 µM | > 50 µM | > 50 µM | 39.4 ± 1.5 µM | > 50 µM |  | selective cytotoxicity toward Capan-1 | 
9 | C/C(=C/CC[C@H](C)[C@@H]1CC[C@]2(C)C3=C(CC[C@@]12C)[C@@]1(C)Cc2cnoc2C(C)(C)[C@@H]1CC3)C(=O)O [Compound 3, (S,Z)-2-Methyl-6-((1S,3aS,5aR,10aS,12aS)-3a,6,6,10a,12a-pentamethyl-2,3,3a,4,5,5a,6,10,10a,11,12,12a-dodecahydro-1H-cyclopenta[7,8]phenanthro[3,2-d]isoxazol-1-yl)hept-2-enoic Acid] | > 50 µM | > 50 µM | > 50 µM | selective cytotoxicity toward Capan-1 | > 50 µM | > 50 µM | > 50 µM | 6.7 ± 0.4 µM | > 50 µM |  |  | 

From PMC12692795, “Design and Synthesis of Structurally Modified Analogs of 24Z-Isomasticadienonic Acid with Enhanced Anti-Proliferative Activity” (Molecules, 2025)
